Reference: patent US8383637B2, “2-amino-quinazoline derivatives useful as inhibitors of β-secretase (BACE)” (Jansssen Pharmaceutica N.V., priority 2004, dated 2013)

Molecular target: T1, β-secretase(BACE) (Homo sapiens, UniProt P56817)
T1 construct: purchased Panvera
Experiment: BACE FS1% Inhibition Assay
Assay type: biochemical
Conditions: FS1 substrate
Method: BACE FS1% Inhibition Assay The following reagents were used in this assay: sodium acetate, PEG8000 (Sigma), DMSO, HEPES, FS1 substrate [[…]] […] The FS1-substrate stock solution was prepared in DMSO as a 10 mg/mL solution. The FS1-substrate working solution was prepared by diluting the 10 mg/mL stock solution with substrate assay buffer to a final concentration of 300 μg/mL. The β-secretase (BACE) working solution was prepared by diluting a 0.83 mg/mL BACE stock solution with enzyme assay buffer to a final concentration of 4 μg/mL. Test compounds were dissolved in DMSO to 10 mM. […] The screening procedure for this assay was as follows: 15 μL of BACE working solution was pipetted into each well of a 96-well plate. To each well was then pipetted 2 μL of test compound at the selected concentration. Test compound and BACE were then mixed with a pipettor and incubated for 20 min at room temperature. To each well was then added 10 μL of the FS1 substrate working solution. The plates were then incubated for 1 hour at room temperature. […] The procedure for the blank was as follows. 15 μL of assay buffer was pipetted into each well to be used as a blank control. To each well was then added 2 μL of vehicle and 10 μL of FS1-substrate working solution. The plates were then incubated for 1 hour at room temperature. […] The procedure for the positive control was as follows: 15 μL of BACE working solution was pipetted into each well to be used as a positive control. To each well was then pipetted 2 μL of vehicle. Vehicle and BACE were then mixed with a pipettor and incubated for 20 min at room temperature. To each well was then added 10 μL of the FS1 substrate working solution. The plates were then incubated for 1 hour at room temperature. […] For test compounds, % inhibition was determined at each concentration as follows: [formula]

T1 sequence (P56817 46-501): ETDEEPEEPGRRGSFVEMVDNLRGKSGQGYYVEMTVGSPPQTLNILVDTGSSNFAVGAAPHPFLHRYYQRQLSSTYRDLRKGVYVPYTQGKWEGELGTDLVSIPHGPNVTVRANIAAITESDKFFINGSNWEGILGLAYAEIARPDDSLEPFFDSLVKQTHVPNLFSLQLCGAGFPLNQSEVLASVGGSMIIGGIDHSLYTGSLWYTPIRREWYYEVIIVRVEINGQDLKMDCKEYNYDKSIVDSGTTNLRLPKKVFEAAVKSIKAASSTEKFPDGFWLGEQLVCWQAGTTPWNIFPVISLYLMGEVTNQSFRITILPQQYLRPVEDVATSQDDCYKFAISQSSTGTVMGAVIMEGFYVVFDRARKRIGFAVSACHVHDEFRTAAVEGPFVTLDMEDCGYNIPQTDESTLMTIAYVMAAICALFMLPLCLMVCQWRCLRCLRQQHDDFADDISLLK

Row | Compound | % Inhibition (FS) 0.3 μM (0.3 μM test compound) [%] | % Inhibition (FS) 1 μM (1 μM test compound) [%] | % Inhibition (FS) 3 μM (3 μM test compound) [%] | % Inhibition (FS) 10 μM (10 μM test compound) [%] | also measured
1 | COC(=O)C1CCCC(N(C)C(=O)CCC(C2CCCCC2)N2Cc3cc(Oc4ccccc4)ccc3N=C2N)C1 (mixture of isomers) [Compound 777] | – | – | – | – | % Inhibition (FS) (0.3 μM test compound): 38%; % Inhibition (FS) (1 μM test compound): 97%; % Inhibition (FS) (3 μM test compound): 123%
2 | COc1ccc(-c2ccc3c(c2)CN(C(CCC(=O)N(C)C2CCCCC2)C2CCCCC2)C(N)=N3)cc1 (racemic) [Compound 226] | <30 | <30 | 54 | – | –
3 | CCC(c1cccc(C(=O)N(C)C2CCCCC2)c1)N1Cc2cc(-c3ccccc3OC)ccc2N=C1N (racemic) [Compound 395] | 69 | 107 | 118 | – | –
4 | CCCC(CCCC(=O)NC1CCCCC1)N1Cc2cc(Oc3ccccc3)ccc2N=C1N (stereo not shown) [Compound 91] | – | – | 68 | 117 | –
5 | NC1=Nc2ccc(Oc3ccccc3)cc2CN1CCCCNC(=O)C1CCCCC1 [Compound 115] | – | – | 40 | 105 | –
6 | NC1=Nc2ccc(Oc3ccccc3)cc2CN1CCCCNC(=O)C1CCCC1 [Compound 116] | – | – | 39 | 81 | –
7 | CN(C(=O)c1ccc2c(c1)C(N1Cc3cc(Oc4ccccc4)ccc3N=C1N)c1ccccc1-2)C1CCCCC1 (stereo not shown) [Compound 118] | – | – | – | – | % Inhibition (FS) 3 μM (3 μM test compound, 3 µM): 48%; % Inhibition (FS) 10 μM (10 μM test compound, 10 µM): 91%
8 | NC1=Nc2ccc(Oc3ccccc3)cc2CN1C1CCN(C(=O)C2CCCCC2)C1 (stereo not shown) [Compound 119] | – | – | 42 | 75 | –
9 | NC1=Nc2ccc(Oc3ccccc3)cc2CN1C1CCN(C(=O)C2CCCC2)C1 (stereo not shown) [Compound 120] | – | – | <30 | 34 | –
10 | NC1=Nc2ccc(Oc3ccccc3)cc2CN1C1c2ccccc2-c2cccc(C(=O)N(C3CCCCC3)C3CCCCC3)c21 (stereo not shown) [Compound 124] | – | – | 56 | 67 | –
11 | CN(C(=O)c1ccc2c(c1)C(N1Cc3cc(Oc4ccccc4)ccc3N=C1N)c1ccccc1-2)C1CCCCC1 (stereo not shown) [Compound 125, 9-(2-Amino-6-phenoxy-4H-quinazolin-3-yl)-9H-fluorene-2-carboxylic acid cyclohexyl-methyl-amide] | – | – | – | – | inhibition at 3 µM (3 μM test compound, read-out: % Inhibition (FS) 3 μM): 42%; inhibition at 10 µM (10 μM test compound, read-out: % Inhibition (FS) 10 μM): 80%
12 | CCCC(CCC(=O)NC1CCCCCC1)N1Cc2cc(Oc3ccccc3)ccc2N=C1N (stereo not shown) [Compound 128] | – | – | 97 | 108 | –
13 | NC1=Nc2ccc(Oc3ccccc3)cc2CN1C(c1ccccc1)c1cccc(C(=O)N(C2CCCCC2)C2CCCCC2)c1 (stereo not shown) [Compound 132] | – | – | 54 | 118 | –
14 | NC1=Nc2ccc(Oc3ccccc3)cc2CN1CCNC(=O)C1CC1c1ccccc1 (stereo not shown) [Compound 139] | – | – | <30 | 61 | –
15 | CCCCCCCCCC(=O)NCCN1Cc2cc(Oc3ccccc3)ccc2N=C1N [Compound 142] | – | – | <30 | 38 | –
16 | NC1=Nc2ccc(Oc3ccccc3)cc2CN1CCCNC(=O)C1CC1 [Compound 143] | – | – | <30 | 32 | –
17 | NC1=Nc2ccc(Oc3ccccc3)cc2CN1CCCNC(=O)C1CCC1 [Compound 144] | – | – | 39 | 59 | –
18 | CN(C(=O)c1ccc2c(c1)C(N1Cc3cc(Oc4ccccc4)ccc3N=C1N)CC2)C1CCCCC1 (stereo not shown) [Compound 145] | – | – | <30 | 37 | –
19 | COc1ccc2c(c1)C(CC(=O)N(C)C1CCCCC1)CC2N1Cc2cc(Oc3ccccc3)ccc2N=C1N (stereo not shown) [Compound 146] | – | – | <30 | 39 | –
20 | NC1=Nc2ccc(Oc3ccccc3)cc2CN1C1c2ccccc2-c2c(C(=O)N(C3CCCCC3)C3CCCCC3)cccc21 (stereo not shown) [Compound 147] | – | – | <30 | 71 | –
21 | CCCCCC(CCC(=O)NC1CCCCCC1)N1Cc2cc(Oc3ccccc3)ccc2N=C1N (stereo not shown) [Compound 150] | <30 | <30 | 90 | – | –
22 | NC1=Nc2ccc(Oc3ccccc3)cc2CN1CCNC(=O)CCc1ccccc1 [Compound 155] | – | – | <30 | 49 | –

Row | Compound | % Inhibition (FS) 0.3 μM (0.3 μM test compound) [%] | % Inhibition (FS) 1 μM (1 μM test compound) [%] | % Inhibition (FS) 3 μM (3 μM test compound) [%] | % Inhibition (FS) 10 μM (10 μM test compound) [%] | also measured
23 | CC(C)(C)c1ccc(C(=O)NCCN2Cc3cc(Oc4ccccc4)ccc3N=C2N)cc1 [Compound 156] | – | – | <30 | 40 | –
24 | CCCCc1ccc(C(=O)NCCN2Cc3cc(Oc4ccccc4)ccc3N=C2N)cc1 [Compound 157] | – | – | <30 | 50 | –
25 | CN(C(=O)c1cccc(CN2Cc3cc(-c4cn[nH]c4)ccc3N=C2N)c1)C1CCCCC1 [Compound 161] | <30 | <30 | <30 | – | –
26 | CN(C(=O)c1cccc(CN2Cc3cc(-c4ccc(C(N)=O)cc4)ccc3N=C2N)c1)C1CCCCC1 [Compound 162] | <30 | <30 | <30 | – | –
27 | CN(C(=O)c1cccc(CN2Cc3cc(-c4cccc(C(=O)O)c4)ccc3N=C2N)c1)C1CCCCC1 [Compound 163] | <30 | 33 | <30 | – | –
28 | CC(=O)Nc1cccc(-c2ccc3c(c2)CN(Cc2cccc(C(=O)N(C)C4CCCCC4)c2)C(N)=N3)c1 [Compound 166] | <30 | 37 | 74 | – | –
29 | CN(C(=O)c1cccc(CN2Cc3cc(-c4ccncc4)ccc3N=C2N)c1)C1CCCCC1 [Compound 168] | <30 | <30 | <30 | – | –
30 | CN(C(=O)c1cccc(CN2Cc3cc(-c4cccc(-c5ccccc5)c4)ccc3N=C2N)c1)C1CCCCC1 [Compound 171] | <30 | 31 | 42 | – | –
31 | CN(C)Cc1ccccc1-c1ccc2c(c1)CN(Cc1cccc(C(=O)N(C)C3CCCCC3)c1)C(N)=N2 [Compound 172] | <30 | <30 | <30 | – | –
32 | CN(C(=O)c1cccc(CN2Cc3cc(-c4ccc5[nH]ccc5c4)ccc3N=C2N)c1)C1CCCCC1 [Compound 175] | <30 | <30 | 37 | – | –
33 | NC1=Nc2ccc(Oc3ccccc3)cc2CN1CCC(=O)N(C1CCCCC1)C1CCCCC1 [Compound 180] | <30 | <30 | 77 | – | –
34 | CC(C)N(C(=O)CCN1Cc2cc(Oc3ccccc3)ccc2N=C1N)C(C)C [Compound 181] | <30 | <30 | 32 | – | –
35 | CCCCCC1CCC(C(=O)NCCN2Cc3cc(Oc4ccccc4)ccc3N=C2N)CC1 (stereo not shown) [Compound 182] | <30 | <30 | 38 | – | –
36 | CC(C)(C)C1CCC(C(=O)NCCN2Cc3cc(Oc4ccccc4)ccc3N=C2N)CC1 (stereo not shown) [Compound 184] | <30 | <30 | 31 | – | –
37 | CC1CCC(N(C(=O)c2cccc(CN3Cc4cc(Oc5ccccc5)ccc4N=C3N)c2)C2CCC(C)CC2)CC1 (stereo not shown) [Compound 187] | <30 | <30 | 39 | – | –
38 | NC1=Nc2ccc(Oc3ccccc3)cc2CN1Cc1cccc(C(=O)NCCc2ccc(S(N)(=O)=O)cc2)c1 [Compound 188] | <30 | <30 | <30 | – | –
39 | CN(C)c1ccc(C(=O)NCCN2Cc3cc(Oc4ccccc4)ccc3N=C2N)cc1 [Compound 189] | <30 | <30 | <30 | – | –
40 | CC(C)CC(=O)NCCN1Cc2cc(Oc3ccccc3)ccc2N=C1N [Compound 190] | 51 | 86 | 101 | – | –
41 | CC1CCC(C(=O)NCCN2Cc3cc(Oc4ccccc4)ccc3N=C2N)CC1 (stereo not shown) [Compound 191] | <30 | 46 | 88 | – | –
42 | NC1=Nc2ccc(Oc3ccccc3)cc2CN1Cc1cccc(C(=O)N2CCC3CCCCC3C2)c1 (stereo not shown) [Compound 193] | <30 | 34 | 67 | – | –
43 | CCCCCC1CC2(C(=O)NCCN3Cc4cc(Oc5ccccc5)ccc4N=C3N)CCC1CC2 (stereo not shown) [Compound 194] | <30 | 42 | 38 | – | –
